Data reported in PubChem BioAssay (NCI).
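Test compounds were applied to cells in 96-well plates for 48 hours at 5 doses. Definition used: TGI = concentration required for complete inhibition of growth.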

What was measured:
Test in all cases: growth of human tumour cells (NCI), 48 h
786-0 renal = test system: 786-0 renal
A549 NSCLC = test system: A549 NSCLC
ACHN renal = test system: ACHN renal
CAKI-1 renal = test system: CAKI-1 renal
CCRF-CEM leukemia = test system: CCRF-CEM leukemia
COLO 205 colon = test system: COLO 205 colon
DU-145 prostate = test system: DU-145 prostate
EKVX NSCLC = test system: EKVX NSCLC
HCC-2998 colon = test system: HCC-2998 colon
HCT-116 colon = test system: HCT-116 colon
HCT-15 colon = test system: HCT-15 colon
HL-60(TB) leukemia = test system: HL-60(TB) leukemia
HOP-62 NSCLC = test system: HOP-62 NSCLC
HOP-92 NSCLC = test system: HOP-92 NSCLC
HS 578T breast = test system: HS 578T breast
HT29 colon = test system: HT29 colon
IGROV1 ovarian = test system: IGROV1 ovarian
K-562 leukemia = test system: K-562 leukemia
KM12 colon = test system: KM12 colon
LOX IMVI melanoma = test system: LOX IMVI melanoma
M14 melanoma = test system: M14 melanoma
MALME-3M melanoma = test system: MALME-3M melanoma
MCF7 breast = test system: MCF7 breast
MDA-MB-231 breast = test system: MDA-MB-231 breast
MDA-MB-435 = test system: MDA-MB-435
MDA-N = test system: MDA-N
MOLT-4 leukemia = test system: MOLT-4 leukemia
NCI-H226 lung = test system: NCI-H226 lung
NCI-H23 lung = test system: NCI-H23 lung
NCI-H460 lung = test system: NCI-H460 lung
NCI-H522 lung = test system: NCI-H522 lung
NCI/ADR-RES ovarian = test system: NCI/ADR-RES ovarian
OVCAR-3 ovarian = test system: OVCAR-3 ovarian
OVCAR-4 ovarian = test system: OVCAR-4 ovarian
OVCAR-5 ovarian = test system: OVCAR-5 ovarian
OVCAR-8 ovarian = test system: OVCAR-8 ovarian
PC-3 prostate = test system: PC-3 prostate
RPMI-8226 leukemia = test system: RPMI-8226 leukemia
SF-268 CNS = test system: SF-268 CNS
SF-295 CNS = test system: SF-295 CNS
SF-539 CNS = test system: SF-539 CNS
SK-MEL-2 melanoma = test system: SK-MEL-2 melanoma
SK-MEL-28 melanoma = test system: SK-MEL-28 melanoma
SK-MEL-5 melanoma = test system: SK-MEL-5 melanoma
SN12C renal = test system: SN12C renal
SNB-19 CNS = test system: SNB-19 CNS
SNB-75 CNS = test system: SNB-75 CNS
SR leukemia = test system: SR leukemia
SW-620 colon = test system: SW-620 colon
T-47D breast = test system: T-47D breast
TK-10 renal = test system: TK-10 renal
U251 CNS = test system: U251 CNS
UACC-257 melanoma = test system: UACC-257 melanoma
UO-31 renal = test system: UO-31 renal
A498 renal = test system: A498 renal
RXF 393 renal = test system: RXF 393 renal
SK-OV-3 ovarian = test system: SK-OV-3 ovarian
UACC-62 melanoma = test system: UACC-62 melanoma

CC(C)=CCC/C(C)=C\CC/C(C)=C/CO
TGI (786-0 renal): 31.1 µM
TGI (A549 NSCLC): > 100 µM
TGI (ACHN renal): 70.7 µM
TGI (CAKI-1 renal): > 10 µM
TGI (CCRF-CEM leukemia): 43.7 µM
TGI (COLO 205 colon): > 100 µM
TGI (DU-145 prostate): > 100 µM
TGI (EKVX NSCLC): > 100 µM
TGI (HCC-2998 colon): 43.1 µM
TGI (HCT-116 colon): 36.9 µM
TGI (HCT-15 colon): > 100 µM
TGI (HL-60(TB) leukemia): 35.4 µM
TGI (HOP-62 NSCLC): 40.3 µM
TGI (HOP-92 NSCLC): 22.7 µM
TGI (HS 578T breast): 67.9 µM
TGI (HT29 colon): 37.6 µM
TGI (IGROV1 ovarian): 55.9 µM
TGI (K-562 leukemia): 42.2 µM
TGI (KM12 colon): > 100 µM
TGI (LOX IMVI melanoma): > 10 µM
TGI (M14 melanoma): 37.2 µM
TGI (MALME-3M melanoma): 32.3 µM
TGI (MCF7 breast): 38.2 µM
TGI (MDA-MB-231 breast): > 100 µM
TGI (MDA-MB-435): 38.3 µM
TGI (MDA-N): > 100 µM
TGI (MOLT-4 leukemia): 42.9 µM
TGI (NCI-H226 lung): > 100 µM
TGI (NCI-H23 lung): 62.2 µM
TGI (NCI-H460 lung): > 10 µM
TGI (NCI-H522 lung): 27.2 µM
TGI (NCI/ADR-RES ovarian): 42.6 µM
TGI (OVCAR-3 ovarian): 30.4 µM
TGI (OVCAR-4 ovarian): 50.4 µM
TGI (OVCAR-5 ovarian): > 100 µM
TGI (OVCAR-8 ovarian): 48.7 µM
TGI (PC-3 prostate): > 100 µM
TGI (RPMI-8226 leukemia): 36.9 µM
TGI (SF-268 CNS): > 100 µM
TGI (SF-295 CNS): 57.2 µM
TGI (SF-539 CNS): 47.8 µM
TGI (SK-MEL-2 melanoma): 30.4 µM
TGI (SK-MEL-28 melanoma): > 100 µM
TGI (SK-MEL-5 melanoma): 61.8 µM
TGI (SN12C renal): > 100 µM
TGI (SNB-19 CNS): 65.6 µM
TGI (SNB-75 CNS): > 100 µM
TGI (SR leukemia): 47.6 µM
TGI (SW-620 colon): > 100 µM
TGI (T-47D breast): > 100 µM
TGI (TK-10 renal): > 100 µM
TGI (U251 CNS): 33.3 µM
TGI (UACC-257 melanoma): > 100 µM
TGI (UO-31 renal): > 100 µM

CN(C)C=Nc1ccc2nonc2c1
TGI (786-0 renal): > 100 µM
TGI (A498 renal): > 100 µM
TGI (A549 NSCLC): > 100 µM
TGI (ACHN renal): > 100 µM
TGI (CAKI-1 renal): > 100 µM
TGI (CCRF-CEM leukemia): > 100 µM
TGI (COLO 205 colon): > 100 µM
TGI (DU-145 prostate): > 100 µM
TGI (EKVX NSCLC): > 100 µM
TGI (HCC-2998 colon): > 100 µM
TGI (HCT-116 colon): > 100 µM
TGI (HCT-15 colon): > 100 µM
TGI (HL-60(TB) leukemia): > 100 µM
TGI (HOP-62 NSCLC): > 100 µM
TGI (HS 578T breast): > 100 µM
TGI (HT29 colon): > 100 µM
TGI (IGROV1 ovarian): > 100 µM
TGI (K-562 leukemia): > 100 µM
TGI (KM12 colon): > 100 µM
TGI (M14 melanoma): > 100 µM
TGI (MALME-3M melanoma): > 100 µM
TGI (MCF7 breast): > 100 µM
TGI (MDA-MB-231 breast): > 100 µM
TGI (MDA-MB-435): > 100 µM
TGI (MDA-N): > 100 µM
TGI (MOLT-4 leukemia): > 100 µM
TGI (NCI-H226 lung): > 100 µM
TGI (NCI-H23 lung): > 100 µM
TGI (NCI-H460 lung): > 100 µM
TGI (NCI-H522 lung): > 100 µM
TGI (NCI/ADR-RES ovarian): > 100 µM
TGI (OVCAR-3 ovarian): > 100 µM
TGI (OVCAR-4 ovarian): > 100 µM
TGI (OVCAR-5 ovarian): > 100 µM
TGI (OVCAR-8 ovarian): > 100 µM
TGI (PC-3 prostate): > 100 µM
TGI (RPMI-8226 leukemia): > 100 µM
TGI (RXF 393 renal): > 100 µM
TGI (SF-268 CNS): > 100 µM
TGI (SF-295 CNS): > 100 µM
TGI (SF-539 CNS): > 100 µM
TGI (SK-MEL-2 melanoma): > 100 µM
TGI (SK-MEL-28 melanoma): > 100 µM
TGI (SK-MEL-5 melanoma): > 100 µM
TGI (SK-OV-3 ovarian): > 100 µM
TGI (SN12C renal): > 100 µM
TGI (SNB-19 CNS): > 100 µM
TGI (SNB-75 CNS): > 100 µM
TGI (SR leukemia): > 100 µM
TGI (SW-620 colon): > 100 µM
TGI (T-47D breast): > 100 µM
TGI (TK-10 renal): > 100 µM
TGI (UACC-257 melanoma): > 100 µM
TGI (UACC-62 melanoma): > 100 µM
TGI (UO-31 renal): > 100 µM
